In the supplement of paper PMC10307832:

Columns and labels:
Assay in all cases: relative viability (nuclei count vs DMSO), 5 days (fraction); higher = more cells survive
AZD5582 = compound: C[C@@H](C(=O)N[C@@H](C1CCCCC1)C(=O)N2CCC[C@H]2C(=O)N[C@@H]3[C@@H](CC4=CC=CC=C34)OCC#CC#CCO[C@@H]5CC6=CC=CC=C6[C@@H]5NC(=O)[C@@H]7CCCN7C(=O)[C@H](C8CCCCC8)NC(=O)[C@H](C)NC)NC [AZD5582]
How it was run: (§1)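 Five library-drug doses, separated by factors of √10, were pinned into 1536-well plates holding lung cancer cell lines after an overnight stay at 37 °C. Cells were fixed, permeabilised and Hoechst-stained in one step after 5 days without medium change, then imaged at 4×. Viability compares treated-well with vehicle-well nuclei, counted in MetaXpress, as a median across plates. Passing plates had control CV below 25% and at least one doubling.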

Temozolomide = compound: Cn1nnc2c(C(N)=O)ncn2c1=O [Temozolomide]
How it was run: as §1

Temozolomide + Alpelisib = compound: Cn1nnc2c(C(N)=O)ncn2c1=O [Temozolomide] + Cc1nc(NC(=O)N2CCC[C@H]2C(N)=O)sc1-c1ccnc(C(C)(C)C(F)(F)F)c1 [Alpelisib] (partner 2 µM)
How it was run: (§2)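 Lung cancer cell lines, seeded in 1536-well plates, were treated the following day by pin tool with a single drug or with five library-drug doses (not always all listed) in √10 steps on top of a fixed anchor-drug dose. Cells were fixed and nuclei stained in one step after 5 days, and nuclei were counted. Relative viability is the nuclei count for treated wells divided by that for vehicle wells, reported as medians of duplicate plates.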

[1] = compound: Cn1nnc2c(C(N)=O)ncn2c1=O [Temozolomide] + C[C@]1(O)C[C@@H](c2nc(-c3ccc4ccc(-c5ccccc5)nc4c3)c3c(N)nccn32)C1 [Linsitinib] (partner 1 µM)
How it was run: as §2

NCI-H1703
relative viability (AZD5582; 0.005 µM): 0.853 | relative viability (AZD5582; 0.01581 µM): 0.952 | relative viability (AZD5582; 0.05 µM): 0.925 | relative viability (Temozolomide; 0.2 µM): 0.986 | relative viability (Temozolomide; 0.6325 µM): 0.947 | relative viability (Temozolomide; 2 µM): 1.29 | relative viability (Temozolomide; 6.325 µM): 0.825 | relative viability (Temozolomide; 20 µM): 0.965 | relative viability (Temozolomide + Alpelisib; first compound 0.2 µM): 0.367 | relative viability (Temozolomide + Alpelisib; first compound 0.6325 µM): 0.344 | relative viability (Temozolomide + Alpelisib; first compound 2 µM): 0.463 | relative viability (Temozolomide + Alpelisib; first compound 6.325 µM): 0.288 | relative viability (Temozolomide + Alpelisib; first compound 20 µM): 0.315 | relative viability ([1]; first compound 0.2 µM): 0.863 | relative viability ([1]; first compound 0.6325 µM): 0.609 | relative viability ([1]; first compound 2 µM): 1.32 | relative viability ([1]; first compound 6.325 µM): 0.841 | relative viability ([1]; first compound 20 µM): 0.95
